Each structure is given as a SMILES string. Like-named read-outs stand apart in the source and are kept apart here.

For data set [1] the following is noted: Zn^2+; cited from earlier work.
The conditions of data set [2]: Ni^2+; cited from earlier work.
The conditions of data set [3]: Fe^3+; cited from earlier work.
The conditions of data set [4]: Fe^2+; cited from earlier work.
A short description of data set [5]: chemical modification of DXR in stored liposomes. Format: physicochemical. The note with it: stored anoxic 1 day at 4° C. The procedure:
The liposomes were stored under anoxic conditions for 1 day at 4° C., as above. Chemical modification of the drug was detected both by fluorescence emission spectroscopy and by assaying the change in drug toward a more lipophilic species, as described in Section A above.

The conditions of data set [6]: in vivo; cited from earlier work.
The conditions of data set [7]: Mg^2+; cited from earlier work.
The conditions of data set [8]: Cu^2+; cited from earlier work.
For data set [9] the following is noted: Co^2+; cited from earlier work.
For data set [10] the following is noted: Ca^2+; cited from earlier work.
For data set [11] the following is noted: prior to or concurrent with DXR administration; cited from earlier work.
Data set [12] in a line: peroxidation in liposomes with chelators. Format: physicochemical.

As for `CC(=O)N(O)CCCCCNC(=O)CCC(=O)N(O)CCCCCNC(=O)CCC(=O)N(O)CCCCCN` [ferrioxamine, ferrioxamine B], the “Binding Affinity” value is reported as 10^11 in data set [1]; 10^10 in data set [2]; 10^31 in [3]; 10^10 in data set [4]; 10^4 in [7]; 10^14 in [8]. Further, the “Binding Affinity” value in [9] is 10^11; in [10] it was 10^2. In data set [5], the “protection against drug modification” value is reported as “moderate protections”. Also, the “safety for parenteral use in humans” value in [6] was “proven safe for parenteral use in humans”.

Take `Cc1c(C)c2c(c(C)c1O)CCC(C)(CCCC(C)CCCC(C)CCCC(C)C)O2` (stereo not drawn) [α-T, alpha-tocopherol]: the “protection against drug modification” value in [5] is “moderate protections”. Further, the reduction of cardiotoxicity entry in data set [11] was “effective in reducing cardiotoxicity”.

As for `O=C(O)CN(CCN(CC(=O)O)CC(=O)O)CCN(CC(=O)O)CC(=O)O` [DTPA], the “effect on anthraquinone modification in vitro” value in data set [12] (in the presence of lipids and ferric iron) is recorded as “protective effect”.

In the case of `O=C(O)CN(CCN(CC(=O)O)CC(=O)O)CC(=O)O` [EDTA, ethylenediaminetetraacetic acid], the “effect on peroxidation damage in liposomes” value in [12] was “peroxidation-stimulating effect”.

Source of the values: patent US5043166A, “Liposome/anthraquinone drug composition and method” (priority 1989, dated 1991).
